“Also recorded” adds a separate entry of the source. Like-named read-outs stand apart in the source and are kept apart here.
What was measured:
[1] = system: preventing undesired pregnancies; settings: cited from earlier work
[2] = system: human contraception; settings: comparatively high doses; cited from earlier work
[3] = system: stimulated dopamine release in the retina; settings: cited from earlier work
[4] = Acute toxicity in rats; settings: rat, in vivo; for LD50: po, per os, read-out: DL50 (the source's name)
Experimental: (§1) In the specific case of melatonin, acute
1) Rats, intraperitoneally
2) Rats, per os DL50 = greater than
(§2) (observation period 14 days)
the symbol DL50 means the amount of material which kills 50% of the
(§3) With respect to the toxicity of 2-iodomelatonin and 2-bromomelatonin, the acute toxicity tests have been carried out:
1) in rats per os: DL50 greater than 200 mg/Kg

[5] = Hematic, biochemical, electrophoretic, organ, bone marrow and histological toxicity tests; settings: in vivo
Excerpt: The haematochemical, electrophoretic tests, and the tests for determining the status and weight of organs, bone marrow, and the hystological tests have not shown any particular toxicity and, based on these observations, which show the low toxicity of the individual compounds and associations, a favourable opinion has been released about the starting of the clinical experimentation.

[6] = in vivo; set-up: species or system rabbits; settings: rabbit, iv
Excerpt: as §1
3) rabbits, intravenously
as §2
(§4) the symbol DL50 means the amount of material which kills 50% of the […]

[7] = system: tumors; assay: Long term treatment: arrest and partial regression of tumors in human; assay type: in vivo; settings: in some cases
[8] = Sub-acute toxicity in rats; settings: rat, in vivo, sc, subcutaneously, observation period 25 days, read-out: DL50
Excerpt: and the sub-acute toxicity in:
(observation period 25 days).
as §4

[9] = system: estrogen receptor; assay: Estrogen receptor number in MCF-7; assay type: cell-based, human
[10] = system: neoplastic tissues; assay: Binding in neoplastic tissues; settings: compared with normal tissues
[11] = system: normal tissues; assay: Binding in normal tissues
[12] = system: cell cultures, neoplasms and hyperplasias; settings: laboratory animals; cited from earlier work
[13] = system: cell cultures, neoplasms and hyperplasias; settings: humans; cited from earlier work
[14] = system: ovarian cell line SK-OV-3; assay: Growth inhibition of ovarian cell line SK-OV-3; assay type: cell-based, human; settings: in vitro
[15] = system: cellular membranes of cellular lines infected with oncogenic viruses; assay: Binding to cellular membranes of cellular lines infected with oncogenic viruses
[16] = system: ovarian cell line JA; assay: Growth inhibition of ovarian cell line JA; assay type: cell-based, human; settings: in vitro
[17] = system: cellular membranes of melanoma; assay: Binding to cellular membranes of melanoma
[18] = system: female patients; assay: Clinical experimentation of associations used as contraceptives in eighty two female patients; assay type: in vivo, human; settings: doses lower than those of melatonin
Experimental: With respect to the clinic experimentation, preliminary tests has been carried out on eighty two female patients, having an age between 18 and 46 years, with the following associations of the disclosed substances:
a) melatonin and norethisterone with doses per day of respectively 100-200 mg and 0.30-0.50 mg:
b) melatonin and 1-norgestrel with doses per day of respectively 100-200 mg and 0.08-0.16 mg;
c) 2-iodomelationin and norethisterone with doses per day of respectively 20-40 mg and 0.30-0.50 mg; mg;
d) 2-iodomelatonin and norgestrel with doses per day of respectively 20-40 mg and 0.35-0.80 mg;
e) 2-iodomelatonin and 1-norgestrel with doses per day of respectively 20-40 mg and 0.08-0.16 mg;
f) 2-bromomelatonin and norethisterone with doses per day of respectively 25-50 mg and 0.30-0.50 mg;
g) 2-bromomelatonin and norgestrel with doses per day of respectively 20-40 mg and 0.35-0.80.
h) 2-bomromelatonin and 1-norgestrel with doses pro die of respectively 20-40 mg and 0.08-0.16 mg.

[19] = system: primary cultures from different human melanomas; assay: Growth inhibition in primary cultures from different human melanomas; assay type: cell-based
Excerpt: (§5) In our studies and experiments we have obtained an inhibition greater than 75% of the growth in primary cultures of metastatic nodules of a human malignant melanoma upon treatment in "vitro" with 2-iodomelatonin and 2-bromomelatonin and in primary cultures from different human melanomas, a growth inhibition has been obtained in 6 of 11 patients studied.

[20] = Acute toxicity in mice; settings: mouse, in vivo, read-out: DL50 (the source's name)
Experimental: as §3
2) in mice per os and intraperitoneally: DL50 greater than 100 mg/Kg.

[21] = system: MS-2 fibrosarcoma cells; assay: Lung metastasis and local tumor growth in mice implanted with MS-2 fibrosarcoma cells; assay type: in vivo
Excerpt: (§6) The results obtained in our laboratories, however, have demonstered that 2-iodomelatonin and 2-bromomelatonin cause a reduction both in the number of the lung metastasis and of the local growth of tumors in mice inplanted with B-16 melanoma or MS-2 fibrosarcoma cells.

[22] = system: mammary carcinoma MCF-7 cells; assay: Growth inhibition of mammary carcinoma MCF-7 cells; assay type: cell-based, human; settings: in vitro
[23] = system: B-16 melanoma; assay: Lung metastasis and local tumor growth in mice implanted with B-16 melanoma; assay type: in vivo
Excerpt: as §6

[24] = system: cellular membranes of mammary gland cancer; assay: Binding to cellular membranes of mammary gland cancer
[25] = system: primary cultures of metastatic nodules of a human malignant melanoma; assay: Growth inhibition in primary cultures of metastatic nodules of a human malignant melanoma; assay type: cell-based; settings: in vitro
Excerpt: as §5

[26] = system: tumors; assay: Oncostatic effects in vivo
[27] = system: human neoplastic cell lines; assay: Oncostatic effects in vitro; assay type: cell-based
[28] = system: bladder carcinoma RT-112; assay: Growth inhibition of bladder carcinoma RT-112; assay type: cell-based, human; settings: in vitro
[29] = Biological activity in vivo and in vitro in respect to melatonin; settings: both in vivo and in vitro

| Structure (SMILES) | inhibition of stimulated dopamine release [3] | toxicity in hematic, biochemical, electrophoretic, organ, bone marrow and histological tests [5] | tumor arrest and regression [7] | binding affinity [10] | binding [11] | inhibition of the growth [14] | binding to cellular membranes [15] | inhibition of the growth [16] | binding to cellular membranes [17] | dose reduction relative to melatonin (times lower) [18] | LD50 [4] | growth inhibition obtained (patients responding of patients studied) [19] | LD50 ([20]; ip, intraperitoneally) | LD50 ([20]; po, per os) | local growth of tumors [21] | number of the lung metastasis [21] | inhibition of the growth [22] | local growth of tumors [23] | number of the lung metastasis [23] | binding to cellular membranes [24] | further results |
| --- | --- | --- | --- | --- | --- | --- | --- | --- | --- | --- | --- | --- | --- | --- | --- | --- | --- | --- | --- | --- | --- |
| C#C[C@]1(O)CC[C@H]2[C@@H]3CCC4=CC(=O)CC[C@@H]4[C@H]3CC[C@@]21C [Norethisterone, norethisterone] |  |  |  |  |  |  |  |  |  |  |  |  |  |  |  |  |  |  |  |  | undesired pregnancies ([1]; mini-pill, alone): about 2.35% |
| COc1ccc2[nH]cc(CCNC(C)=O)c2c1 [melatonin, reference compound] | potent inhibitors of stimulated dopamine release in this organ, very much like melatonin | have not shown any particularly toxicity | arrest and partial regression of tumors | much lower | high affinity, saturable and specific |  |  |  |  |  |  |  |  |  |  |  |  |  |  |  | dose required to express contraceptive action [2]: 100 to 200 mg; LD50 at 336 h ([4]; ip, intraperitoneally, observation period 14 days, read-out: DL50): 462 mg/kg; LD50 ([4]; observation period 14 days): > 800 mg/kg; LD50 at 336 h [6]: 394 mg/kg; LD50 at 600 h [8]: > 192 mg/kg; estrogen receptor number [9]: temporarily caused an increase of the estrogen receptor number |
| COc1ccc2[nH]c([125I])c(CCNC(C)=O)c2c1 [2-(125I)-iodomelatonin] |  |  |  |  |  |  |  |  |  |  |  |  |  |  |  |  |  |  |  |  | binding [12]: specific and saturable binding; binding [13]: specific and saturable binding |
| C#C[C@]1(O)CC[C@H]2[C@@H]3CCC4=CC(=O)CC[C@@H]4[C@H]3CC[C@@]21CC [1-norgestrel] |  |  |  |  |  |  |  |  |  |  |  |  |  |  |  |  |  |  |  |  | contraceptive results compared with norethisterone mini-pill ([1]; reduced doses (0.08-0.16 mg)): better results |
| COc1ccc2[nH]c(I)c(CCNC(C)=O)c2c1 [2-iodomelatonin, N-acetyl-2-iodo-5-methoxytriptamine] | potent inhibitors | have not shown any particularly toxicity | arrest and partial regression of tumors | much lower | high affinity, saturable and specific | dose-dependant inhibition of the growth | bind to the cellular membranes | dose-dependant inhibition of the growth | bind to the cellular membranes | five to ten | > 200 mg/kg | 6 of 11 | > 100 mg/kg | > 100 mg/kg | reduction | reduction | dose-dependant inhibition of the growth; also recorded: inhibited the growth of the cellular lines MCF-7 in a dose dependant manner | reduction | reduction | bind to the cellular membranes | inhibition of the growth [25]: greater than 75%; oncostatic effects [26]: Powerful oncostatic effects; oncostatic effects [27]: Powerful oncostatic effects; inhibition of the growth [28]: dose-dependant inhibition of the growth; activity relative to that of melatonin (times higher) [29]: seven to ten |
| COc1ccc2[nH]c(Br)c(CCNC(C)=O)c2c1 [2-bromomelatonin, N-acetyl-2-bromo-5-methoxytriptamine] | potent inhibitors | have not shown any particularly toxicity | arrest and partial regression of tumors | much lower | high affinity, saturable and specific | dose-dependant inhibition of the growth | bind to the cellular membranes | dose-dependant inhibition of the growth | bind to the cellular membranes | five to ten | > 200 mg/kg | 6 of 11 | > 100 mg/kg | > 100 mg/kg | reduction | reduction | dose-dependant inhibition of the growth; also recorded: inhibited the growth of the cellular lines MCF-7 in a dose dependant manner | reduction | reduction | bind to the cellular membranes | inhibition of the growth [25]: greater than 75%; oncostatic effects [26]: Powerful oncostatic effects; oncostatic effects [27]: Powerful oncostatic effects; inhibition of the growth [28]: dose-dependant inhibition of the growth; activity relative to that of melatonin (times higher) [29]: seven to ten |
